Here are results for 1 compound from US20080075677A1, “Antioxidant Complex and a Cosmetic and Pharmaceutical Composition Comprising Said Complex” (priority 2004, published 2008).

This assay is described as follows: DPPH free-radical test of antioxidant potential. Type of assay: biochemical. The text has this: Objective: analyzing the antioxidant potential of the complex of the present invention in comparison with other known antioxidant system compositions. A solution of 0.004% of DPPH (diphenyl […] hydrazyl) in ethanol was used. The action of DPPH on ethanol generates free radicals, forming colorful aducts, which are spectrophotometrically detected. Further, a solution of BHT in ethanol was used and its solutions described in the table below. Tubes with the DPPH solution and the compositions of the above products were prepared.
On the technique in general: DPPH is a stable violet radical that fades when it is reduced.

Regarding `O=C1O[C@H]([C@@H](O)CO)C(O)=C1O` [vitamin C, ascorbic acid], the “effect of vitamin C on the potential of the antioxidant complex at determined concentrations” value (at determined concentrations of vitamin C) is given as “causes reduction of said potential”. Further, the “effect of the presence of vitamin C on the potential of the antioxidant complex” value (vitamin C added to the antioxidant complex composition) is “does not improve the potential”.
